{"source": "patent US10246490B2", "about": "(priority 2014, dated 2019)", "system": "HVA calcium channel (high-voltage activated calcium ion channel)", "type": "cell-based, rat", "data": [{"smiles": "COC(=O)C1=C(C)NC(C)=C(C(=O)OC)C1c1ccccc1[N+](=O)[O-]", "note": "[Nifedipine]", "values": [{"measurement": "current after loading", "value": "−734.31", "unit": "pA"}, {"measurement": "current before loading", "value": "−1471.35", "unit": "pA"}, {"measurement": "inhibition rate", "setting": "10 μM", "value": 50.09, "unit": "%"}]}]}
